Test results as given in PMC4979471 (Cell Death Discovery, 2015).
Like-named read-outs stand apart in the source and are kept apart here.

How the values were obtained:
Assay in all cases: Kinase selectivity, P33-radiolabeled assay
Type in all cases: biochemical
Conditions in all cases: 10 μM ATP
[1] = molecular target: T1, PKG2/PRKG2 (Homo sapiens, UniProt Q13237)
T1 construct: purchased Reaction Biology Corp
T1 sequence (Q13237 1-762): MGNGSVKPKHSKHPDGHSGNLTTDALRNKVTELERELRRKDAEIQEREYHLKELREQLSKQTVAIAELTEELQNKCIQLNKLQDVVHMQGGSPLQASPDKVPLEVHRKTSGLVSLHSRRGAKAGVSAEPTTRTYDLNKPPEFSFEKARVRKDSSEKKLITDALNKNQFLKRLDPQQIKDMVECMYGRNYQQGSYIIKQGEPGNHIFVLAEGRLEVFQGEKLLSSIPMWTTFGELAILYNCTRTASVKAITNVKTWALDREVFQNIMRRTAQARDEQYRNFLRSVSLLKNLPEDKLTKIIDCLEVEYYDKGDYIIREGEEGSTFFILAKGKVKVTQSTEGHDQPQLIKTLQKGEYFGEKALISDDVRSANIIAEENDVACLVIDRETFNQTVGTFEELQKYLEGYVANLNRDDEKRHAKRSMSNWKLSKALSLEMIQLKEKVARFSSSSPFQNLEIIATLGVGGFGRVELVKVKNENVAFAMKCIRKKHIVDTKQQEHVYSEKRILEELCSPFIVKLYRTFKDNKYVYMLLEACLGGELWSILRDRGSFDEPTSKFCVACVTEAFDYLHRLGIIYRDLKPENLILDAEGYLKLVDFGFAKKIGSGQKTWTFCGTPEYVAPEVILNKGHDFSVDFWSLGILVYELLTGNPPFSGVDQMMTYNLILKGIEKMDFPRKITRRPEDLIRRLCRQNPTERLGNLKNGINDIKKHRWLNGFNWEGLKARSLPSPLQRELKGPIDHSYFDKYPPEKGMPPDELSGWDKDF
How it was run: (§1)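 Percent residual kinase activity versus DMSO is reported. Conditions: compound at 10 μM, ATP at 10 μM, n = 2.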

[2] = molecular target: T2, GRK5 (Homo sapiens, UniProt P34947)
T2 construct: purchased Reaction Biology Corp
T2 sequence (P34947 whole entry): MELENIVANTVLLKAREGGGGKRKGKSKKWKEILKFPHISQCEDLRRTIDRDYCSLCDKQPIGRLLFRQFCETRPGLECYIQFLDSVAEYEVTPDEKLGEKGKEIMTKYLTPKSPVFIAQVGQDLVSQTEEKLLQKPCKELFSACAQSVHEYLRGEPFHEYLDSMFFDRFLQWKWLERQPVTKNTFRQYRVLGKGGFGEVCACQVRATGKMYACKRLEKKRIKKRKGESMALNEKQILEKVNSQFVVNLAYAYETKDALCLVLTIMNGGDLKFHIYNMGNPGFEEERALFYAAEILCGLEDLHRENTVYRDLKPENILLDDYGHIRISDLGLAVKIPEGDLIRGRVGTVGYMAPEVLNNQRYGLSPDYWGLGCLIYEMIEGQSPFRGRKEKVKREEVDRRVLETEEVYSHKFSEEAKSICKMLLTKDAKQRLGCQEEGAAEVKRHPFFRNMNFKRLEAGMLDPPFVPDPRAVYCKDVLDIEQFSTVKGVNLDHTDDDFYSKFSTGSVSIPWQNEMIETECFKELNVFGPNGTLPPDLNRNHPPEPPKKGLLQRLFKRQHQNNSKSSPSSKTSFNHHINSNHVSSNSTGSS
How it was run: as §1

[3] = molecular target: T3, GCK/MAP4K2 (Homo sapiens, UniProt Q12851)
T3 construct: purchased Reaction Biology Corp
T3 sequence (Q12851 1-820): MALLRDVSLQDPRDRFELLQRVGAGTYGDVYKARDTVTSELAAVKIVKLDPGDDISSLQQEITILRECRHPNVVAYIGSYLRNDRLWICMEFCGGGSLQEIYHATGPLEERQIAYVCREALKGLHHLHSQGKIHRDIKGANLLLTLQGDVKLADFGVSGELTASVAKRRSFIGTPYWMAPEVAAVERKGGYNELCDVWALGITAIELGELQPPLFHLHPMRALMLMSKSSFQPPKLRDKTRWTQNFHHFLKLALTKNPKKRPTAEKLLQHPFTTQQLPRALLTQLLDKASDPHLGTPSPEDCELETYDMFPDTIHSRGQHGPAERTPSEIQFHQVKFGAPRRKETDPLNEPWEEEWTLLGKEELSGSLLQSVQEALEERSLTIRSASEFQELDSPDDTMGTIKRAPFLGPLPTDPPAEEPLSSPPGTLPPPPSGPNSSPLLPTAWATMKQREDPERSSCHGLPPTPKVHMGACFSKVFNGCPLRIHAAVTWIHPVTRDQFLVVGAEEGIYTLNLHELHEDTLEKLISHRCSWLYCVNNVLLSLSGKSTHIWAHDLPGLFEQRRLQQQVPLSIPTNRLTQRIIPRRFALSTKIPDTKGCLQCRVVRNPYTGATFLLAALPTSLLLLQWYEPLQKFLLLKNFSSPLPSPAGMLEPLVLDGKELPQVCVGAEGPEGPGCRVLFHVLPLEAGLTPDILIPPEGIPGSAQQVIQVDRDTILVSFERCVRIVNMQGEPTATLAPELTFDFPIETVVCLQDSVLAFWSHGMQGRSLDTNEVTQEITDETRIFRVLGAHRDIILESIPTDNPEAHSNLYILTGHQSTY
How it was run: as §1

[4] = molecular target: T4, ACK1 (Homo sapiens, UniProt Q07912)
T4 construct: purchased Reaction Biology Corp
T4 sequence (Q07912 whole entry): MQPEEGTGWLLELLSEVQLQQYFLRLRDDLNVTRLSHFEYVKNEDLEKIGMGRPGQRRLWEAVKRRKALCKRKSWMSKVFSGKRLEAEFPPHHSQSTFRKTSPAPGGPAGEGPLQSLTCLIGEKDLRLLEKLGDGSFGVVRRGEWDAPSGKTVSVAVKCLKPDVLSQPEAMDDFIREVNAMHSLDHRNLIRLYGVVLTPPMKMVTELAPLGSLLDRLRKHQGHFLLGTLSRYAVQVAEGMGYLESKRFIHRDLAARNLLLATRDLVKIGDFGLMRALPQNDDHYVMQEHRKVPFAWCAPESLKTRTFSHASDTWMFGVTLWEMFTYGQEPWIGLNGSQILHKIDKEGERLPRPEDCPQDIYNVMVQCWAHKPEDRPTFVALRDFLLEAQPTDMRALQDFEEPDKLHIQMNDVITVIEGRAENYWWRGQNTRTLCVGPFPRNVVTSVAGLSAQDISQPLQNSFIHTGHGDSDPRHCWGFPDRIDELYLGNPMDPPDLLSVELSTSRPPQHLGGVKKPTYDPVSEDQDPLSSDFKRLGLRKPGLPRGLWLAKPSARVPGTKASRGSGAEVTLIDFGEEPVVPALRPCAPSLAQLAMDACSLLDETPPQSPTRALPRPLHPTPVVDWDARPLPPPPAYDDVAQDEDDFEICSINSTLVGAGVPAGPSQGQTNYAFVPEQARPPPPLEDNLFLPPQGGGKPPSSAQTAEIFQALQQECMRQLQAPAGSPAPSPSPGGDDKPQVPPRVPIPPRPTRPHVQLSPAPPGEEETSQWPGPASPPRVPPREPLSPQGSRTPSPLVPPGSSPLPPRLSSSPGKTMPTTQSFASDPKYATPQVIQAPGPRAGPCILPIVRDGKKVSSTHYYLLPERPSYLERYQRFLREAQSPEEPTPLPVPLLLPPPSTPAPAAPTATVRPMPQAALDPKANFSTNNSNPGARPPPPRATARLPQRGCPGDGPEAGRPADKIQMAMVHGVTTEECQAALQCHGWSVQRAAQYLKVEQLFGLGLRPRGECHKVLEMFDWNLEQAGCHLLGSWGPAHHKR
How it was run: as §1

[5] = molecular target: T5, LYN B (Homo sapiens, UniProt P07948)
T5 construct: purchased Reaction Biology Corp
T5 sequence (P07948 1-491 isoform P07948-2): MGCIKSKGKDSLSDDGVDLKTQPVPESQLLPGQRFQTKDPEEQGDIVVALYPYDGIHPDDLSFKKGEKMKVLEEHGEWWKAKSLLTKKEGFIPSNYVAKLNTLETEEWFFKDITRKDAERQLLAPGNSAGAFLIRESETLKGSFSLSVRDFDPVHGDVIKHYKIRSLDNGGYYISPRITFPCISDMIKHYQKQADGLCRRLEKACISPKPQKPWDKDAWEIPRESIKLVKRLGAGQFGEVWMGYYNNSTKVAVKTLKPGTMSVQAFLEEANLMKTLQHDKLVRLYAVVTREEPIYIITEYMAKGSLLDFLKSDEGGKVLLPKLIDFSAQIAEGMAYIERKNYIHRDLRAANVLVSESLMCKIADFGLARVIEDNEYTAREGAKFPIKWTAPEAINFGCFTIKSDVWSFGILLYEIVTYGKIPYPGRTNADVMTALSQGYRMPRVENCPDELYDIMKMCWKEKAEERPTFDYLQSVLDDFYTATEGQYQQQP
How it was run: as §1

[6] = molecular target: T6, EPHA4 (Homo sapiens, UniProt P54764)
T6 construct: purchased Reaction Biology Corp
T6 sequence (P54764 20-986): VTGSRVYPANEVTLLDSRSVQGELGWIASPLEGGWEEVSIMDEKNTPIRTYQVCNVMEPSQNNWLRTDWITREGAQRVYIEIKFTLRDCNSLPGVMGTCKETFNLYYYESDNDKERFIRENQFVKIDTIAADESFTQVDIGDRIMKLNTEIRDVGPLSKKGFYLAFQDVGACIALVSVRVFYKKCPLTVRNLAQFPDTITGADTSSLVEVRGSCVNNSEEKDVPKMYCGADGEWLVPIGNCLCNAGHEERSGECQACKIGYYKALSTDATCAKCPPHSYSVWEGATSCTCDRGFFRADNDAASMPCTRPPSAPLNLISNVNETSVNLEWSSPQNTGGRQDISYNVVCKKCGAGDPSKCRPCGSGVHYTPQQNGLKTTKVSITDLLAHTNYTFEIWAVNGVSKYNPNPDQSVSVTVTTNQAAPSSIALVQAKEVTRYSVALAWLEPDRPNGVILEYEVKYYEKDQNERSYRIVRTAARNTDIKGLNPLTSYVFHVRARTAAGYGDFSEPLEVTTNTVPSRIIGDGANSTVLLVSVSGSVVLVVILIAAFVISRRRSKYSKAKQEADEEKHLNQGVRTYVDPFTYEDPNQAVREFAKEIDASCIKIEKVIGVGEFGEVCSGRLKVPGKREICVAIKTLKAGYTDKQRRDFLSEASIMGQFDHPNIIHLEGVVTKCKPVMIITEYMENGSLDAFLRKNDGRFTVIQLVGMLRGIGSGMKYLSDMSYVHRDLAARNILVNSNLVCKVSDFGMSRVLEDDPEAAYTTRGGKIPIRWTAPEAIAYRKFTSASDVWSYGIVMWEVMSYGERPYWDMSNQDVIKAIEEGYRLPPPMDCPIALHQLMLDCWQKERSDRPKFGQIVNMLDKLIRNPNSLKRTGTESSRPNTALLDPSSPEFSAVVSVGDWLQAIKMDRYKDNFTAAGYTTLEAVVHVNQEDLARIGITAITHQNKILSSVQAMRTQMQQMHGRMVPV
How it was run: as §1

[7] = read-out: % Enzyme Activity (relative to DMSO controls) AVG
[8] = read-out: % Enzyme Activity (relative to DMSO controls) Data 1
[9] = read-out: % Enzyme Activity (relative to DMSO controls) Data 2

## CC(C)(C)C(=O)N1N=CC[C@H]1c1ccccc1 [GSK′963]
[1]; [7]
  remaining activity at 10 µM: 105%
[1]; [8]
  remaining activity at 10 µM: 98.2%
[1]; [9]
  remaining activity at 10 µM: 112%
[2]; [7]
  remaining activity at 10 µM: 99.4%
[2]; [8]
  remaining activity at 10 µM: 98.2%
[2]; [9]
  remaining activity at 10 µM: 101%
[3]; [7]
  remaining activity at 10 µM: 109%
[3]; [8]
  remaining activity at 10 µM: 108%
[3]; [9]
  remaining activity at 10 µM: 110%
[4]; [7]
  remaining activity at 10 µM: 82.3%
[4]; [8]
  remaining activity at 10 µM: 84.2%
[4]; [9]
  remaining activity at 10 µM: 80.3%
[5]; [7]
  remaining activity at 10 µM: 99.7%
[5]; [8]
  remaining activity at 10 µM: 103%
[5]; [9]
  remaining activity at 10 µM: 96%
[6]; [7]
  remaining activity at 10 µM: 99.2%
[6]; [8]
  remaining activity at 10 µM: 99.2%
[6]; [9]
  remaining activity at 10 µM: 99.2%
